Literature values as cited in patent US20050163759A1, “Compositions and methods for ex vivo preservation of blood vessels for vascular grafts using inhibitors of type I and/or type II phosphodiesterases” (priority 2003, published 2005).

System: endothelial cells
Settings: stated as known; no experiment described

CCCC(=O)Nc1ncnc2c1ncn2[C@@H]1O[C@@H]2COP(=O)(O)O[C@H]2[C@H]1OC(=O)CCC [db cAMP, dibutyryl adenosine 3′,5′-cyclic monophosphate]
db cAMP concentrations that become toxic to endothelial cells: higher than 4 mM
